The record followed here is US20180171321A1, “PLATFORM FOR A NON-NATURAL AMINO ACID INCORPORATION INTO PROTEINS” (THE UNIVERSITY OF QUEENSLAND, priority 2015, published 2018).

The test system of data set [1] is AGG codon in GFP ORFs. In words: AGG reassignment to AzF in cell-free system depleted of tRNA species decoding AGG. Format: biochemical, E. coli. The settings on record: all four templates. As to the method: FIG. 23. AGG reassignment to AzF in the context of four GFP ORFs. The GFP protein was expressed in cell-free system depleted of tRNA species decoding AGG codon with and without addition of MjY suppression system (MjY2/AzFRS). The final concentrations for MjY2, AzFRS, AzF are were 10 μM, 10 μM and 1 mM, respectively. The anticodon in MjY2 was changed to CCU in order to reassign AGG codon to AzF.
The tRNA-depleted lysate is prepared as described by ethanolamine-sepharose affinity chromatography^24. DNA templates with two GFP ORFs: one of optimized codon composition for eGFP (Template A) and the other of simplified codon composition for sGFP (Template B), were used. Mutations to amber or AGG-codon were introduced either by synthesizing the whole gene fragments as gBlocks by IDT to change all the 6 Arg codons to AGG simultaneously or using PCR with the proper primers to introduce mutations with less than 3 nucleotides at the same position. […] The sequence information of all the open reading frames used here is provided in SI.
The cell-free translation reactions for GFP production were performed following the standard protocol^60 with the optimized Mg^2+ at 10 mM concentration. […] GFP production was monitored on a fluorescence plate reader (Synergy) at 30° C. for 3-5 h at 485 nm excitation and 528 nm emission wavelengths. […]

The subject of data set [2] is amber codon (UAG) in GFP templates. The data set is described as follows: Amber codon suppression in E. coli cell-free translation system (GFP fluorescence). Format: biochemical. An excerpt:
FIG. 22. Comparative analysis of amber codon suppression efficiencies in E. coli cell-free translation system with different nnAA/o-tRNA/aaRS combinations. A: The structure of nnAAs used here. B-D: Suppression Amber suppression of A_151X template. The suppression efficiency is defined as a ratio compared to the fluorescence of percentage of wild type eGFP fluorescence wild type eGFP without stop codon inside its ORF. B: Incorporation of four nnAAs by three PylRS variants. The final concentrations of PylTcua, PylRS variants and nnAAs were 20 μM, 20 μM and 1 mM, respectively. C: AzF incorporation by four MjY tRNA variants. MjY1, MjY2, MjY3 and MjY4 are corresponding to the tRNAs pAzPhe1, pAzPhe2, pAzPhe3 and tRNAopt CUA in original publication^35,37. The final concentrations of MjYtRNA variants, AzFRS and AzF are 10 μM, 10 μM and 1 mM, respectively. D: Effect of o-tRNA and o-aaRS concentrations on amber codon suppression efficiency of MjY2/AzFRS/AzF and PylT/PylRSAF/PrK. E: The effect of codon contexts on nnAA incorporation efficiency in two orthogonal systems. The concentration of MjY2 and AzFRS were 10 μM for both while PylT and PylRS were used at 20 and 30 μM, respectively. Four templates, named A_1X, A_151X, B_1X and B_151X, were used in the analysis (sequences are shown in SI). A and B denote the template backbones with different codon biases where codon vocabulary in A is optimized for eGFP while in B it is simplified mostly utilizing the unique codon to decode each amino acid type. The numeric indicates the position of amber codon in ORF sequence. The relative activity in individual reactions is given as a percent of fluorescent intensity provided while obtained when using EctRNATyr(cua) as a suppressor.
The tRNA-depleted lysate is prepared as described by ethanolamine-sepharose affinity chromatography^24. DNA templates with two GFP ORFs: one of optimized codon composition for eGFP (Template A) and the other of simplified codon composition for sGFP (Template B), were used. Mutations to amber or AGG-codon were introduced either by synthesizing the whole gene fragments as gBlocks by IDT to change all the 6 Arg codons to AGG simultaneously or using PCR with the proper primers to introduce mutations with less than 3 nucleotides at the same position. The obtained fragments were cloned into the pLTE or pOPINE-based plasmids following the standard Gibson assembly cloning procedure (NEB). The correct plasmids with desired mutations were purified by Midiprep Kit (Qiagen) to ensure good quality for cell free protein translation. The sequence information of all the open reading frames used here is provided in SI.
The cell-free translation reactions for GFP production were performed following the standard protocol^60 with the optimized Mg^2+ at 10 mM concentration. 0.35 volume of depleted lysate, same as that for the standard S30 lysate, was used in the reaction. […] GFP production was monitored on a fluorescence plate reader (Synergy) at 30° C. for 3-5 h at 485 nm excitation and 528 nm emission wavelengths.
We tested the recombinant forms of PylRS variants for their ability to support in vitro synthesis of eGFP synthesis from the template containing amber-codon at 151 position (A_151X, SI) in the presence of an evolved o-tRNA harboring U25C mutation in its anticodon stem (PylT)^14 and nnAA-substrates BCN, TCO or TCO*. Another nnAA PrK (FIG. 22A) for also used for azide-coupling known to be accommodated and charged to tRNA by wt MbPylRS30 and […], MmPylRS5, was also tested. […] Neither of these large aliphatic alkynes or alkenes could be incorporated by either of three PylRS mutants with efficiency above 5%. […] The latter confirms the promiscuity of engineered PylRS variant to various substrates reported in a comprehensive study^35

Data set [3] relates to amber codon in A_151X template. In words: Amber suppression by flexizyme-precharged nnAA-tRNA, A_151X template. Format: biochemical, E. coli. The settings on record: five nnAAs; precharged tRNA 10, 20 or 30 uM. The source says: FIG. 29. The incorporation efficiency of 5 nnAAs precharged by flexizyme with their respective active group. A: The structure of five activated acid substrates for tRNA acylation by Flexizyme, including L-Propargylglycine 4-chlorobenzyl thioester (Pra-CBT), L-Azidolysine 4-chlorobenzyl thioester (Lys(N3)-CBT), L-Azidohomoalanine 4-chlorobenzyl thioester (Aha-CBT), NE-biotinyl-L-lysine 3,5-dinitrobenzyl ester (Lys(biotin)-DBN) and L-Azidophenylalanine-cyanomethyl ester (AzF-CME). The nnAAs are shown in black while their respective active groups in red. B: The amber suppression efficiency of 5 nnAAs precharged tRNA tested by using A_151X template in the cell free translation system. The precharged tRNA was used to prime the translational reactions at 10, 20 or 30 uM of final tRNA concentration. The flexizyme reaction time and the final concentration of precharged nnAA-tRNAs were indicated.
C-terminal Cys were added into sequence of the affinity clamp protein (pdz-fibronectin Fusion Protein, PDB: 3CH8_A). The purified protein with C-terminal Cys was immobilized on Iodoacetyl Gel (UltraLink®) using manufacture's protocol. tRNA charging by flexizyme for amber suppression: The acylation reaction were performed as described before^62. 1 volume of 250 μM o-tRNA was mixed with the same volume of 50 μM Fx ([…]) and 3 volume of water. […]

For data set [4], the system named is GCU Ser isoacceptor. The data set is described as follows: Kissing loop binding to tRNA isoacceptor. The note with it: read-out: affinity. Set-up: species or system E. coli. As to the method: Kissing loop (KL) binds GCU Ser isoacceptor with high affinity (5-50 nM) through the formation of quasi-continuous double helix stabilized by the common stacking column between the planes of the nucleotide pairs (FIG. 16A). E. coli S30 lysate can be to a large extent depleted of total tRNA by the chromatography on ethanolamine sepharose. After the depletion lysate retains ˜60% of translational efficiency of its parental one if supplemented by commercially available total tRNA fraction (FIG. 16 B).

The mark [5] stands for this setting: A_151X template, % of wild type eGFP fluorescence, PylTcua 20 μM, PylRS variant 20 μM, nnAA 1 mM.

Entries after “also recorded” stand apart in the source; their conditions may differ.

For the molecule `[N-]=[N+]=Nc1ccc(C[C@H](N)C(=O)O)cc1` [AzF, p-azidophenylalanine], in data set [1], the “GFP protein modified with AzF” value is listed as “more than 80%”. In addition, the “protein containing AzF (LC-MS/MS)” value in data set [2] (GFP151AzF sample, TAG codon) is given as “more than 80%”. Besides, in data set [3], the “amber suppression efficiency among flexizyme-charged nnAAs” value is on record as “best amber-codon incorporation efficiency; also recorded: highest translational activity”.
As for `C#CCN[C@@H](CCCCN)C(=O)O` [PrK, N-Propargyl-Lysine], in data set [2] (A_151X template), the “incorporation with TCORS” value is “essentially failed to incorporate”. Besides, in data set [2] (setting [5]), the “UAG suppression efficiency with BCNRS” value is on record as “essentially failed to incorporate” and the “UAG suppression efficiency with PylRSAF” value was 13%.
As to Bicyclo [6.1.0] nonyne-Lysine [BCN], the “UAG suppression efficiency with BCNRS” value in data set [2] (setting [5]) is given as 3%. Moreover, the “efficiency of UAG suppression by either of three PylRS mutants” value in data set [2] (A_151X template, BCNRS, TCORS, PylRSAF) is listed as “very low”.

B1: MjY4: MjY tRNA with six mutations described in a later report (nucleic acid)
DNA: CCGGCGGTAGTTCAGCAGGGCAGAACGGCGGACTCTAAATCCGCATGGCAGGGGTTCAAATCCCCTCCGCCGGACCA
modifications: RNA, all phosphodiester, T or U not given here
notes: MjY tRNA with six mutations described in a later report
As to B1, the “efficiency of MjY2 relative to the listed tRNA in AzF incorporation” value in data set [2] (A_151X, 10 μM tRNA, 10 μM AzFRS, 1 mM AzF) is given as “slightly better”.

B2: KL: RNA aptamer binding the anticodon loop of tRNA(Ser)GCU; SEQ ID NO:7 (nucleic acid)
chain: GGTAGTGAGGTAGTTAGCAGATACCTCACTACCAACACACACACAACACACACACAACACACAAGCT
modifications: “kissing loop” coding sequence with linker
B2: the Kd in data set [4] lay in the range of 5 to 50 nM.
